Values quoted from earlier work in publication PMC7507806 (ACS Pharmacology & Translational Science, 2020).

How the values were obtained:
Conditions in all cases: cited from earlier work
SARS-CoV-2 3CL^pro = SARS-CoV-2 3CL^pro (Severe acute respiratory syndrome coronavirus 2, UniProt P0DTD1)
SARS-CoV-2 = test system: SARS-CoV-2
SARS-CoV-2 virus = test system: SARS-CoV-2 virus

CC(C)c1nc(CN(C)C(=O)N[C@H](C(=O)N[C@@H](Cc2ccccc2)C[C@H](O)[C@H](Cc2ccccc2)NC(=O)OCc2cncs2)C(C)C)cs1 [ritonavir]
inhibition of 3CL^pro (SARS-CoV-2 3CL^pro): did not show inhibition

Cc1cccc(C)c1OCC(=O)N[C@@H](Cc1ccccc1)[C@@H](O)C[C@H](Cc1ccccc1)NC(=O)[C@H](C(C)C)N1CCCNC1=O [Lopinavir]
inhibition of 3CL^pro (SARS-CoV-2 3CL^pro): did not show inhibition

Cc1cc(C(=O)N[C@@H](C)C(=O)N[C@H](C(=O)N[C@@H](CC(C)C)C(=O)NC(/C=C/C(=O)OCc2ccccc2)C[C@@H]2CCNC2=O)C(C)C)no1 (some centres unmarked) [N3]
antiviral activity in viral RNA quantification and plaque-reduction assays (SARS-CoV-2): strongest antiviral activity

O=c1c2ccccc2[se]n1-c1ccccc1 [ebselen]
antiviral activity in viral RNA quantification and plaque-reduction assays (SARS-CoV-2): strongest antiviral activity

CCCC(NC(=O)C(CC(C)C)NC(=O)OCc1ccccc1)C(=O)C(=O)NCc1ccccn1 (centres unmarked) [calpain inhibitor XII]
activity in CPE and viral yield reduction assays (SARS-CoV-2 virus): active in both CPE and viral yield reduction assays
